Source: patent publication US4059586A, “5-Alkoxy-2-alkyl-1,2,3,4-tetrahydroisoquinolene-8-carboxaldehyde and derivatives” (Marion Laboratories, Inc., priority 1976, dated 1977)

Experiments:
[1] = ALD50 in mice (acute toxicity, i.p.); details: mouse, in vivo, ip
Experimental: (§1) 5-hydroxy-2-methyl-7,8-cyclopentano[h]-1,2,3,4-tetrahydroisoquinoline has an ALD50 in mice of 100-150 mg/kg i.p. When administered as the base at 50 mg/kg i.p. to hypertensive rats the following percent change in systolic blood pressure was observed: […]

hypertensive rats = test: percent change in systolic blood pressure in hypertensive rats; format: in vivo; details: base at 50 mg/kg i.p.
Experimental: as §1

CN1CCc2c(O)cc3c(c2C1)CCC3 [5-hydroxy-2-methyl-7,8-cyclopentano[h]-1,2,3,4-tetrahydroisoquinoline]
LD50 [1]: 100 to 150 mg/kg
percent change in systolic blood pressure (hypertensive rats; 1 hour): -18.9%
percent change in systolic blood pressure (hypertensive rats; 2 hours): -13.6%
percent change in systolic blood pressure (hypertensive rats; 4 hours): -11.2%
percent change in systolic blood pressure (hypertensive rats; 24 hours): -4.7%
